The record followed here is ChEMBL document CHEMBL1201862, “PubChem BioAssay data set” (2004).

Holding throughout (experiment): inhibition of tumour cell growth, NCI panel, 48 h
Assay [1] concerns 786-0.
Assay [2] concerns IGROV-1.
Assay [3] deals with MCF7.
The subject of assay [4] is MDA-MB-435.
The test system of assay [5] is NCI-H23.
Assay [6] relates to NCI-H522.
Assay [7] has as its system NCI/ADR-RES.
For assay [8], the system named is OVCAR-3.
Assay [9] relates to OVCAR-4.
Assay [10] has as its system OVCAR-5.
Assay [11] has as its system RPMI-8226.
Assay [12] concerns RXF 393.
Assay [13] has as its system SK-MEL-28.
Assay [14] relates to SK-MEL-5.
For assay [15], the system named is SK-OV-3.
The test system of assay [16] is SNB-19.
Assay [17] concerns SR.
In assay [18] the test system is UACC-257.
The subject of assay [19] is UACC-62.
The subject of assay [20] is UO-31.

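Each compound was tested at five concentrations against cells in 96-well plates for 48 hours. At the GI50, growth is halved.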 Active and inactive are the calls of the source. No stated cut-off is given here; in the data, active = GI50 up to about 1.1 µM and inactive = higher.

Turning to `CCC(=O)OCc1ccc2oc(=O)c(C(=O)Oc3cncc(Cl)c3)cc2c1`, the GI50 in [1] was 74.1 µM (inactive); in [2], > 100 µM (inactive); in assay [3], 76.4 µM (inactive); in assay [4] it was 70 µM (inactive); in assay [5], 52.2 µM (inactive); in [6], 29.2 µM (inactive). Further, the GI50 was > 100 µM (inactive) in assay [7]; > 100 µM (inactive) in assay [8]; > 100 µM (inactive) in assay [9]; > 100 µM (inactive) in [10]; > 100 µM (inactive) in assay [11]; 37.4 µM (inactive) in assay [12]. For the same compound, the GI50 in [13] is > 100 µM (inactive); in assay [14], > 100 µM (inactive); in [15], > 100 µM (inactive); in assay [16] it was > 100 µM (inactive); in assay [17], 20.8 µM (inactive); in assay [18], > 100 µM (inactive). The GI50 is 52.1 µM (inactive) in assay [19] and 83.8 µM (inactive) in [20].

With `Cc1ccc2c(c1C)C(=O)/C(=C/c1cccc(C)c1C(=O)O)C2`, the GI50 in [1] was > 100 µM (inactive); in assay [2] it was > 86.7 µM (inactive); in assay [3], 25.9 µM (inactive); in [4] it was 52.7 µM (inactive); in [5], > 100 µM (inactive); in assay [6] it was 40.1 µM (inactive). Besides, the GI50 in assay [7] was 59.8 µM (inactive); in assay [8] it was 71.6 µM (inactive); in [9], > 79.6 µM (inactive); in assay [10] it was > 100 µM (inactive); in [11] it was 71.3 µM (inactive); in assay [12], 63.1 µM (inactive). Besides, the GI50 is 79.3 µM (inactive) in assay [13]; 38.9 µM (inactive) in assay [14]; 59.8 µM (inactive) in [15]; > 100 µM (inactive) in assay [16]; > 60.5 µM (inactive) in assay [17]; 57.9 µM (inactive) in assay [18]. The GI50 in [19] is 56 µM (inactive); in [20], 2.2 µM (inactive).

On to `COC(O)C(=O)c1c2c(cc3c1CC1(Cc4cc5c(cc4C1)CCC5)C3)CCC2` (stereo unspecified), for which the GI50 in assay [1] is 14 µM (inactive); in [2], 13 µM (inactive); in [3], 16 µM (inactive); in assay [4], 2.7 µM (inactive); in assay [5] it was 16.4 µM (inactive); in assay [6], 17.7 µM (inactive). Moreover, the GI50 is 17.3 µM (inactive) in assay [7]; 15.6 µM (inactive) in [8]; 18.5 µM (inactive) in assay [9]; 18.2 µM (inactive) in assay [10]; 8.02 µM (inactive) in assay [11]; 14.8 µM (inactive) in assay [12]. Also, the GI50 in assay [13] is 20 µM (inactive); in assay [14], 17.3 µM (inactive); in assay [15], 17.4 µM (inactive); in assay [16], 18.1 µM (inactive); in assay [17] it was 3.99 µM (inactive); in assay [18], 18.7 µM (inactive). For the same compound, the GI50 in [20] is 18.7 µM (inactive).

Take `COC(=O)/C=C1\C(=O)Nc2ccc(Br)cc21`: the GI50 was 1.48 µM (inactive) in assay [1]; 1.75 µM (inactive) in assay [2]; 1.46 µM (inactive) in assay [3]; 1.87 µM (inactive) in assay [4]; 1.54 µM (inactive) in assay [5]; 0.743 µM (active) in [6]. Besides, the GI50 in assay [7] was 1.91 µM (inactive); in assay [8], 1.46 µM (inactive); in assay [9] it was 2.23 µM (inactive); in assay [10] it was 1.54 µM (inactive); in [11], 1.41 µM (inactive); in [12], 1.54 µM (inactive). Also, the GI50 in [13] is 2.68 µM (inactive); in assay [14], 1.6 µM (inactive); in assay [15] it was 3.53 µM (inactive); in assay [16], 3.24 µM (inactive); in assay [17], 0.925 µM (active); in assay [18] it was 1.37 µM (inactive). The GI50 in assay [19] is 1.56 µM (inactive); in [20], 2.19 µM (inactive).

With `COC1C(=O)N(SC)C1c1ccccc1Cl` (stereo unspecified), the GI50 in assay [1] is 18.7 µM (inactive); in [2], 18.7 µM (inactive); in [3], 19.7 µM (inactive); in assay [4], 21.3 µM (inactive); in assay [5] it was > 100 µM (inactive); in assay [6], 16.6 µM (inactive). Moreover, the GI50 in [7] is 68.1 µM (inactive); in assay [8], 19.6 µM (inactive); in assay [9], 16.7 µM (inactive); in assay [10] it was 17.8 µM (inactive); in assay [11], 19.6 µM (inactive); in [12], > 100 µM (inactive). The GI50 in [13] was > 100 µM (inactive); in assay [14] it was 95.5 µM (inactive); in [15] it was > 100 µM (inactive); in assay [16], > 100 µM (inactive); in [17], 18.6 µM (inactive); in assay [18] it was > 100 µM (inactive). The GI50 in assay [19] is 54.8 µM (inactive); in assay [20], 17.5 µM (inactive).

Turning to `CC(C)[C@@H]1CC[C@@H](C)C[C@H]1OC(=O)/C=C1\C(C(=O)O[C@@H]2C[C@H](C)CC[C@H]2C(C)C)[C@H]2C=C[C@@H]1O2` (stereo partly specified), the GI50 in [1] is 66.5 µM (inactive); in assay [2], > 100 µM (inactive); in [3], 25.1 µM (inactive); in assay [4] it was 59 µM (inactive); in assay [5], 36.7 µM (inactive); in [6] it was 22.5 µM (inactive). Moreover, the GI50 was > 100 µM (inactive) in assay [7]; 38.3 µM (inactive) in assay [8]; > 100 µM (inactive) in assay [9]; > 100 µM (inactive) in [10]; 56.1 µM (inactive) in assay [11]; > 100 µM (inactive) in assay [12]. In addition, the GI50 in [13] was > 100 µM (inactive); in [14] it was 40.4 µM (inactive); in [15], > 100 µM (inactive); in [16], > 100 µM (inactive); in assay [17], 43 µM (inactive); in assay [18], 35 µM (inactive). Moreover, the GI50 is 92.5 µM (inactive) in [19] and > 100 µM (inactive) in assay [20].

`O=C(Cc1cc(=O)oc2cc(O)ccc12)N/N=C/c1ccc(N(CCCl)CCCl)cc1`: the GI50 in [1] is 18.8 µM (inactive); in assay [2] it was 18.8 µM (inactive); in [3], 14.8 µM (inactive); in assay [4], 19.8 µM (inactive); in assay [5] it was 22.3 µM (inactive); in assay [6] it was 20.9 µM (inactive). For the same compound, the GI50 in assay [7] is 84.1 µM (inactive); in assay [8] it was 18.2 µM (inactive); in assay [9], 23.8 µM (inactive); in [10], 25.6 µM (inactive); in [11] it was 16.4 µM (inactive); in assay [12], 16.6 µM (inactive). In addition, the GI50 in [13] is 15.1 µM (inactive); in assay [14], 14.6 µM (inactive); in assay [16], 21.1 µM (inactive); in assay [17] it was 14.2 µM (inactive); in assay [18], 22.1 µM (inactive); in [19], 6.19 µM (inactive). Moreover, in assay [20], the GI50 was 22.2 µM (inactive).

Consider `C=CCC(CNC(=O)OCc1ccccc1)OC(=O)OCc1ccccc1` (stereo unspecified), for which the GI50 is 91.2 µM (inactive) in [1]; > 100 µM (inactive) in assay [2]; 39.1 µM (inactive) in assay [3]; 57 µM (inactive) in [4]; 43.9 µM (inactive) in [5]; 62.1 µM (inactive) in [6]. Besides, the GI50 is > 100 µM (inactive) in assay [7]; 63.2 µM (inactive) in [8]; 69.8 µM (inactive) in [9]; > 100 µM (inactive) in assay [10]; 26.1 µM (inactive) in [11]; > 100 µM (inactive) in [12]. For the same compound, the GI50 in assay [13] is > 100 µM (inactive); in assay [14] it was 22 µM (inactive); in [15], > 100 µM (inactive); in [16], > 100 µM (inactive); in [17], 21.8 µM (inactive); in assay [18], 73.3 µM (inactive). Moreover, the results for the GI50 in [19] and in [20] were 93.5 µM (inactive) and > 100 µM (inactive), respectively.

`O=C1NC(N2CCOCC2)=N/C1=C\c1ccc(Cl)cc1`: the GI50 in [1], in assay [2], in assay [3], in [4], in assay [5] and in assay [6] was > 100 µM (inactive) in each case. Further, the GI50 in assay [7], in [8], in assay [9], in assay [10], in assay [11] and in assay [12] was > 100 µM (inactive) throughout. Moreover, the GI50 in [13], in assay [15], in assay [16], in assay [17], in assay [18] and in assay [19] was > 100 µM (inactive) each time. In addition, in assay [20], the GI50 is > 100 µM (inactive).

As to `CCCC(=O)N[C@H]1CCc2cc(OC)c(OC)c(OC)c2-c2ccc(SC)c(=O)cc21`, the GI50 in assay [1], in assay [2], in assay [3], in assay [4], in assay [5] and in [6] was < 0.01 µM (active) throughout. Moreover, the GI50 in [7] is 0.016 µM (active); in [8] it was < 0.01 µM (active); in [9], 17.1 µM (inactive); in [10], 0.278 µM (active); in assay [11], 0.0631 µM (active); in [12], 0.175 µM (active). The GI50 is < 0.01 µM (active) in [13]; < 0.01 µM (active) in assay [14]; 0.143 µM (active) in assay [15]; < 0.01 µM (active) in assay [16]; < 0.01 µM (active) in assay [17]; < 0.01 µM (active) in assay [19]. Besides, in assay [20], the GI50 is 0.31 µM (active).
